The values that follow come from patent US20230033195A1, “METHODS AND COMPOSITIONS FOR IMPROVING COGNITIVE FUNCTION” (THE JOHNS HOPKINS UNIVERSITY, priority 2011, published 2023).

The assay deals with Age-Impaired (AI) Long-Evans rats. In words: Morris Water Maze (MWM) retention trial, spatial memory retention. The format is in vivo, rat. On the procedure: FIG. 2 depicts the effects of administering levetiracetam on the spatial memory retention of six aged-impaired rats (AI) in a Morris Water Maze (MWM) test. Three treatment conditions were employed: vehicle control, levetiracetam (5 mg/kg/day) and levetiracetam (10 mg/kg/day). The AI rats were trained for two consecutive days, with a one-time treatment prior to the training trials per day. 24 hours later, the AI rats were tested. The time the AI rats, 24 hours after treatment with the different conditions and two days of training, spent swimming in the target quadrant or the target annulus in a memory retention trial is used as a measure of spatial memory retention. The target quadrant refers to the quadrant of the maze (which is a circular pool) where the escape platform is placed during the training trials. The target annulus refers to the exact location of the escape platform during the training trials.
The MWM apparatus consists of a large, circular pool (diameter 1.83 m; height, 0.58 m) filled with water (27° C.) that is made opaque through the addition of non-toxic pigment or some other substance. In the typical "hidden platform" version of the test, rats are trained to find a camouflaged white escape platform (height, 34.5 cm) that is positioned in the center of one quadrant of the maze about 1.0 cm below the water surface. This platform can be retracted to the bottom of the tank or raised to its normal position from outside the maze during behavioral testing. The location of the platform remains constant from trial to trial. Because there are no local cues that mark the position of the platform, the rat's ability to locate it efficiently from any starting position at the perimeter of the pool depends on using information surrounding the maze. The maze is surrounded by black curtains to which white patterns are affixed to provide a configuration of spatial cues. A second platform (height 37.5 cm), with its surface painted black is elevated 2 cm above the water surface during cue training to control for factors unrelated to cognition. The behavior of a rat in the pool is recorded by a camera that is suspended 2.5 m above the center of the pool. The camera is connected to a video tracking system (HVS Image Advanced Tracker VP200) and a PC computer running HVS software developed by Richard Baker of HVS Image, Hampton, UK.
The MWM protocol is optimized for sensitivity to the effects of aging on cognition and for measures of reliable individual differences within the aged population of out-bred Long-Evans rats (Gallagher et al. Behav. Neurosci. 107:618-626, (1993)). […] At the completion of the protocol using the hidden platform, rats are assessed for cue learning using the visible platform. […]

In the case of `CC[C@@H](C(N)=O)N1CCCC1=O` [levetiracetam, (2S)-2-(2-oxopyrrolidin-1-yl) butanamide], the “performance (time in target quadrant) compared to vehicle” value (5 mg/kg/day i.p., retention trial 24 h after training) is “did not significantly improve”. Also, the “time spent in the target annulus” value (10 mg/kg/day i.p., retention trial) is “effectivness of the 10 mg/kg/day levetiracetam treatment was also seen”. Besides, the “memory as compared to vehicle-treated controls (time in target quadrant)” value (10 mg/kg/day i.p., retention trial 24 h after training) is recorded as “significantly improved memory”. Also, for the setting “10 mg/kg/day i.p., retention trial 24 h after two training days”, the “time spent in the target quadrant, percentage of total swimming time” value is recorded as “approximately 35%”.
